This passage reports GI50 and TGI results from PubChem BioAssay (NCI).

Test systems include LOX IMVI melanoma; MALME-3M melanoma; MDA-MB-435; NCI-H23 lung; OVCAR-3 ovarian; OVCAR-8 ovarian; SK-MEL-5 melanoma; SNB-75 CNS; TK-10 renal; UACC-257 melanoma.
What all share (test): NCI tumour cell line growth inhibition, 48 h

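All cell lines were grown in 96-well plates and treated with compound for 48 hours. The concentration for 50% growth inhibition is given as GI50. Definition used: TGI = concentration required for complete inhibition of growth.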 Some results are limits rather than exact numbers.

For `Nc1nc(-c2cccc(Cl)c2)c(-c2ccc3ncccc3n2)s1`, the GI50 with LOX IMVI melanoma, in the assay on MALME-3M melanoma, with MDA-MB-435, in the assay with NCI-H23 lung, in the assay on OVCAR-3 ovarian and with OVCAR-8 ovarian was over 25 µM each time. Besides, the GI50 in the assay on SK-MEL-5 melanoma was over 19.6 µM; in the assay with SNB-75 CNS, over 25 µM; in the assay with TK-10 renal it was over 17.2 µM; in the assay with UACC-257 melanoma, over 25 µM. Besides, the TGI in the assay on LOX IMVI melanoma, in the assay on MALME-3M melanoma, in the assay with MDA-MB-435, with NCI-H23 lung, in the assay with OVCAR-3 ovarian and in the assay on OVCAR-8 ovarian was over 25 µM each time. For the same compound, the TGI in the assay on SK-MEL-5 melanoma, in the assay on SNB-75 CNS, in the assay with TK-10 renal and in the assay with UACC-257 melanoma was over 25 µM each time.
Turning to `O=C(/C(=C/c1cccc([N+](=O)[O-])c1)c1ccccc1)c1ccccc1`, the GI50 with MALME-3M melanoma was 2.32 µM; in the assay on MDA-MB-435, 1.96 µM; with NCI-H23 lung, 2.92 µM; with OVCAR-3 ovarian, 3.66 µM; in the assay with SK-MEL-5 melanoma it was 2.39 µM; in the assay on SNB-75 CNS, 2.3 µM. Besides, the GI50 in the assay on TK-10 renal is 4.19 µM; with UACC-257 melanoma, 4.17 µM. Besides, the TGI in the assay on MALME-3M melanoma turned out to be 5.81 µM; with MDA-MB-435 it was 4.43 µM; in the assay on NCI-H23 lung, 17 µM; in the assay with OVCAR-3 ovarian it was 10.9 µM; in the assay with SK-MEL-5 melanoma, 6.73 µM; in the assay with SNB-75 CNS, 7.65 µM. Also, the TGI was 21.4 µM in the assay on TK-10 renal and 18.8 µM with UACC-257 melanoma.
For `COc1cc2c(c(OC)c1OC)C(=O)[C@@H]1c3ccc([N+](=O)[O-])cc3C(=O)N(CCCBr)[C@H]21`, the GI50 in the assay with LOX IMVI melanoma was 19.5 µM; in the assay with MDA-MB-435 it was 2.79 µM; with NCI-H23 lung, 15.4 µM; with OVCAR-3 ovarian it was 2.02 µM; in the assay on OVCAR-8 ovarian, 10.2 µM; in the assay on SK-MEL-5 melanoma, 11 µM. In addition, the values for the GI50 with SNB-75 CNS, with TK-10 renal and in the assay on UACC-257 melanoma were 9.46 µM, 8.04 µM and 5.21 µM, respectively. Besides, the TGI in the assay on LOX IMVI melanoma was over 100 µM; in the assay with MDA-MB-435 it was 14.7 µM; in the assay on NCI-H23 lung it was 35.8 µM; with OVCAR-3 ovarian, 12.4 µM; in the assay on OVCAR-8 ovarian, 37.6 µM; in the assay on SK-MEL-5 melanoma, 27.5 µM. The TGI with SNB-75 CNS worked out at 45.1 µM; in the assay with TK-10 renal, 34.9 µM; in the assay with UACC-257 melanoma, 30.8 µM.
For `COc1ccc(/C=C\c2cc(OC)c(OC)c(OC)c2)cc1OC(=O)NCCN(C)C`, the TGI with LOX IMVI melanoma is over 100 µM; in the assay with MALME-3M melanoma it was 98.3 µM; in the assay with MDA-MB-435, under 0.0001 µM; in the assay on NCI-H23 lung it was 0.00431 µM; with OVCAR-3 ovarian it was 0.00347 µM; with OVCAR-8 ovarian, 0.638 µM. In addition, the TGI with SK-MEL-5 melanoma is 0.0474 µM; with SNB-75 CNS it was 32.8 µM; in the assay with TK-10 renal it was over 100 µM. Moreover, the GI50 in the assay on TK-10 renal is over 47 µM.
On to `CC[CH2][Sn]([Cl])([Cl])[CH2]CC.Oc1ccccc1C=NCCN=Cc1ccccc1O`, for which the GI50 in the assay with LOX IMVI melanoma is 14.4 µM; in the assay with MALME-3M melanoma, 1.57 µM; with MDA-MB-435 it was 7.3 µM; in the assay on NCI-H23 lung it was 6.62 µM; in the assay with OVCAR-3 ovarian, 9.29 µM; in the assay with OVCAR-8 ovarian, 12.3 µM. Also, the results for the GI50 in the assay with SK-MEL-5 melanoma, with SNB-75 CNS and in the assay with UACC-257 melanoma were 4.87 µM, 3.34 µM and 3.61 µM, respectively. Besides, the TGI worked out at 28 µM in the assay on LOX IMVI melanoma; 4.61 µM with MALME-3M melanoma; 24.7 µM in the assay with MDA-MB-435; 20.5 µM in the assay with NCI-H23 lung; 21.4 µM in the assay on OVCAR-3 ovarian; 27.7 µM in the assay with OVCAR-8 ovarian. In addition, the TGI came out at 17.5 µM in the assay on SK-MEL-5 melanoma, 16.1 µM in the assay on SNB-75 CNS and 17.8 µM in the assay on UACC-257 melanoma.
`CCC(=O)c1c(C(F)(F)F)n([O-])c2ccc(C)cc2[n+]1=O`: the GI50 in the assay on LOX IMVI melanoma is 7.47 µM; in the assay on MDA-MB-435, 9.53 µM; in the assay with NCI-H23 lung, 1.2 µM; in the assay on OVCAR-3 ovarian, 3.88 µM; in the assay with OVCAR-8 ovarian it was 2.83 µM; in the assay with SK-MEL-5 melanoma it was 4.33 µM. For the same compound, the GI50 in the assay on SNB-75 CNS is 15.9 µM; in the assay with TK-10 renal, 0.812 µM; in the assay with UACC-257 melanoma it was 11.3 µM. For the same compound, the TGI in the assay on LOX IMVI melanoma was 17.9 µM; with MDA-MB-435, 40.8 µM; with NCI-H23 lung it was 6.1 µM; in the assay with OVCAR-3 ovarian, 15 µM; with OVCAR-8 ovarian, over 50 µM; in the assay on SK-MEL-5 melanoma it was 13.9 µM. Besides, the results for the TGI in the assay with SNB-75 CNS, in the assay on TK-10 renal and with UACC-257 melanoma were over 50 µM, 6.61 µM and over 50 µM, respectively.
Regarding `CCOC(=O)c1c(C)nc2c(c1N)/C(=C/c1ccc(OC)cc1)C(=O)N2Cc1ccc(F)cc1`, the GI50 is 0.164 µM in the assay with LOX IMVI melanoma; 0.185 µM in the assay on MALME-3M melanoma; 0.201 µM with MDA-MB-435; 0.262 µM with NCI-H23 lung; 0.109 µM in the assay with OVCAR-3 ovarian; 0.257 µM in the assay with OVCAR-8 ovarian. The GI50 in the assay on SK-MEL-5 melanoma was 0.333 µM; with SNB-75 CNS, 1.03 µM; in the assay with TK-10 renal, 0.264 µM. The TGI was 0.34 µM with LOX IMVI melanoma; 0.44 µM in the assay on MALME-3M melanoma; 0.469 µM with MDA-MB-435; 1.03 µM in the assay with NCI-H23 lung; 0.51 µM in the assay on OVCAR-3 ovarian; 1.06 µM with OVCAR-8 ovarian. Moreover, the results for the TGI in the assay with SK-MEL-5 melanoma, in the assay on SNB-75 CNS and in the assay with TK-10 renal were 1.48 µM, 4.83 µM and 1 µM, respectively.
With `COC(=O)c1c(C)[nH]c(/C=C2\N=C(c3ccc[nH]3)C=C2OC)c1C`, the GI50 in the assay on MALME-3M melanoma was 0.525 µM; in the assay with MDA-MB-435, 0.108 µM; in the assay with NCI-H23 lung, 0.483 µM; with OVCAR-3 ovarian, 0.152 µM; in the assay with OVCAR-8 ovarian, 0.229 µM; in the assay on SK-MEL-5 melanoma, 0.225 µM. Further, the figures for the GI50 in the assay on SNB-75 CNS, in the assay on TK-10 renal and in the assay with UACC-257 melanoma were 0.399 µM, 0.141 µM and 0.339 µM, respectively. For the same compound, the TGI turned out to be 2.02 µM in the assay with MALME-3M melanoma; 1.46 µM in the assay with MDA-MB-435; 4.55 µM with NCI-H23 lung; 2.09 µM in the assay on OVCAR-3 ovarian; 0.665 µM in the assay on SK-MEL-5 melanoma; 3.24 µM with SNB-75 CNS. Moreover, the values for the TGI in the assay on TK-10 renal and with UACC-257 melanoma were 4.03 µM and 1.52 µM, respectively.
